Columns and labels:
GLP-1 receptor = target: T1, GLP-1 receptor (Rattus norvegicus, UniProt P32301); assay: in vitro functional assay at the GLP-1 receptor (cyclase, cAMP production in RIN m5f cell membranes); type: biochemical; conditions: Cyclase GLP-1 Receptor EC50 (nM), Table 1; RIN m5f cell membranes, cAMP production (AlphaScreen)
T1 construct: 96-well assay plate containing RIN m5f cell membranes in an ATP/GTP mixture; endogenous in cells; host or cells: RIN m5f cell membranes
T1 sequence (P32301 22-463): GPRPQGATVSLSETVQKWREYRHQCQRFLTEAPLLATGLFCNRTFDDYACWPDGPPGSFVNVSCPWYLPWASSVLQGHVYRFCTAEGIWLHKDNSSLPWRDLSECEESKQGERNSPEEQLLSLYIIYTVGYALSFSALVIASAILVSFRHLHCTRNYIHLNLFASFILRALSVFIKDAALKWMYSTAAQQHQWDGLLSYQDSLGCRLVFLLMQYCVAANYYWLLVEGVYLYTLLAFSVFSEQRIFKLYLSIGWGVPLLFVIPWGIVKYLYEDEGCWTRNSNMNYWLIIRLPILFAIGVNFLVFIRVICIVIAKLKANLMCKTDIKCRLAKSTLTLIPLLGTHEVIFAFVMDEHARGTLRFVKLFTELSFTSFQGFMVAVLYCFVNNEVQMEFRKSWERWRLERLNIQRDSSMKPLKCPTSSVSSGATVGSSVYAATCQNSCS
Protocol: The compounds shown in Table 1 below were analyzed in an in vitro functional assay at the GLP-1 receptor. The assay was conducted as follows: Membrane fractions were prepared from confluent cultures of RIN m5f cells. Compounds were serially diluted with an assay buffer, and then added to a 96-well assay plate containing RIN m5f cell membranes in an ATP/GTP mixture. Cyclase activities were determined by measuring the production of cAMP induced through GLP-1 receptor activation. Quantification of cAMP production was achieved through a competitive chemiluminescence assay with a biotinylated-cAMP probe using Perkin Elmer Fusion™-Alpha Microplate Analyzer (AlphaScreen™ technology). The compound EC50 values were obtained through fitting the concentration-response curves to a four-parameter logistic equation within GraphPad PRISM® software.

NIH/Swiss female mice = assay: in vivo basal glucose lowering assay; conditions: subcutaneous injection
Protocol: Some compounds shown in Table 1 below were analyzed in an in vivo basal glucose lowering assay using the following procedure: A subcutaneous injection of either 200 μl phosphate-buffered saline (PBS) vehicle or test article was given immediately following baseline glucose (t=0) to NIH/Swiss female mice. Tail blood glucose samples were measured at t=2 and 4 hours post dose using a OneTouch® Ultra® (LifeScan, Inc., a Johnson & Johnson Company, Milpitas, Calif.). Body weight was measured daily. Significant test sample effects were identified by ANOVA (p<0.05), followed by Dunnett's post test using GraphPad Prism version 4.00 for Windows (GraphPad Software, San Diego Calif.).

[1] = Table 1, time in hours, tail blood glucose at t=2 and 4 hours post dose
[2] = Table 1, result in words (inactive / similar to GLP-1)

In the case of `CC[C@H](C)[C@H](NC(=O)[C@H](Cc1ccccc1)NC(=O)[C@H](CC(C)C)NC(=O)[C@H](CCCNC(=N)N)NC(=O)[C@@H](NC(=O)[C@H](C)NC(=O)[C@H](CCC(=O)O)NC(=O)[C@H](CCC(=O)O)NC(=O)[C@H](CCC(=O)O)NC(=O)[C@H](CC(C)C)NC(=O)[C@H](CCC(N)=O)NC(=O)[C@H](CCCCN)NC(=O)[C@H](CO)NC(=O)[C@H](CC(C)C)NC(=O)[C@H](CC(=O)O)NC(=O)[C@H](CO)NC(=O)[C@@H](NC(=O)[C@H](Cc1ccccc1)NC(=O)[C@@H](NC(=O)CNC(=O)[C@@H]1CCCN1C(=O)CNC(=O)[C@@H](N)Cc1c[nH]cn1)[C@@H](C)O)[C@@H](C)O)C(C)C)C(=O)N[C@@H](CCC(=O)O)C(=O)N[C@@H](Cc1ccccc1)C(=O)N[C@@H](CC(C)C)C(=O)N[C@@H](CCCCN)C(=O)N[C@@H](CC(N)=O)C(N)=O` [5B], the EC50 (GLP-1 receptor) is reported as 0.53 nM and the “In Vivo Glucose-Lowering Assay” value (NIH/Swiss female mice; [1]) is reported as “more than 4 hours”.
With `CC[C@H](C)[C@H](NC(=O)[C@H](Cc1ccccc1)NC(=O)[C@H](CC(C)C)NC(=O)[C@H](CCCNC(=N)N)NC(=O)[C@@H](NC(=O)[C@H](C)NC(=O)[C@H](CCC(=O)O)NC(=O)[C@H](CCC(=O)O)NC(=O)[C@H](CCC(=O)O)NC(=O)[C@H](CC(C)C)NC(=O)[C@H](CCC(N)=O)NC(=O)[C@H](CCCCN)NC(=O)[C@H](CO)NC(=O)[C@H](CC(C)C)NC(=O)[C@H](CC(=O)O)NC(=O)[C@H](CO)NC(=O)[C@@H](NC(=O)[C@H](Cc1ccccc1)NC(=O)[C@@H](NC(=O)CNC(=O)C(C)(C)NC(=O)[C@@H](C)NC(=O)[C@@H](N)Cc1c[nH]cn1)[C@@H](C)O)[C@@H](C)O)C(C)C)C(=O)N[C@@H](CCC(=O)O)C(=O)N[C@@H](Cc1ccccc1)C(=O)N[C@@H](CC(C)C)C(=O)N[C@@H](CCCCN)C(=O)N[C@@H](CC(N)=O)C(N)=O` [9B] the EC50 (GLP-1 receptor) was 0.03 nM and the “In Vivo Glucose-Lowering Assay” value (NIH/Swiss female mice; [1]) was “more than 4 hours”.
With `CC[C@H](C)[C@H](NC(=O)[C@H](Cc1ccccc1)NC(=O)[C@H](CC(C)C)NC(=O)[C@H](CCCNC(=N)N)NC(=O)[C@@H](NC(=O)[C@H](C)NC(=O)[C@H](CCC(=O)O)NC(=O)[C@H](CCC(=O)O)NC(=O)[C@H](CCC(=O)O)NC(=O)[C@H](CC(C)C)NC(=O)[C@H](CCC(N)=O)NC(=O)[C@H](CCCCN)NC(=O)[C@H](CO)NC(=O)[C@H](CC(C)C)NC(=O)[C@H](CC(=O)O)NC(=O)[C@H](CO)NC(=O)[C@@H](NC(=O)[C@H](Cc1ccccc1)NC(=O)[C@@H](NC(=O)CNC(=O)[C@@H]1CSCN1C(=O)[C@@H](C)NC(=O)[C@@H](N)Cc1c[nH]cn1)[C@@H](C)O)[C@@H](C)O)C(C)C)C(=O)N[C@@H](CCC(=O)O)C(=O)N[C@@H](Cc1ccccc1)C(=O)N[C@@H](CC(C)C)C(=O)N[C@@H](CCCCN)C(=O)N[C@@H](CC(N)=O)C(N)=O` [9D] the EC50 (GLP-1 receptor) was 0.01 nM and the “In Vivo Glucose-Lowering Assay” value (NIH/Swiss female mice; [1]) was “more than 4 hours”.
`CC[C@H](C)[C@H](NC(=O)[C@H](Cc1ccccc1)NC(=O)[C@H](CC(C)C)NC(=O)[C@H](CCCNC(=N)N)NC(=O)[C@@H](NC(=O)[C@H](C)NC(=O)[C@H](CCC(=O)O)NC(=O)[C@H](CCC(=O)O)NC(=O)[C@H](CCC(=O)O)NC(=O)[C@H](CC(C)C)NC(=O)[C@H](CCC(N)=O)NC(=O)[C@H](CCCCN)NC(=O)[C@H](CO)NC(=O)[C@H](CC(C)C)NC(=O)[C@H](CC(=O)O)NC(=O)[C@H](CO)NC(=O)[C@@H](NC(=O)[C@H](Cc1ccccc1)NC(=O)[C@@H](NC(=O)CNC(=O)[C@@H]1CS(=O)(=O)CN1C(=O)[C@@H](C)NC(=O)[C@@H](N)Cc1c[nH]cn1)[C@@H](C)O)[C@@H](C)O)C(C)C)C(=O)N[C@@H](CCC(=O)O)C(=O)N[C@@H](Cc1ccccc1)C(=O)N[C@@H](CC(C)C)C(=O)N[C@@H](CCCCN)C(=O)N[C@@H](CC(N)=O)C(N)=O` [9F] was tested, and the EC50 (GLP-1 receptor) was 0.07 nM and the “In Vivo Glucose-Lowering Assay” value (NIH/Swiss female mice; [1]) was “more than 4 hours”.
For `CC[C@H](C)[C@H](NC(=O)[C@H](Cc1ccccc1)NC(=O)[C@H](CC(C)C)NC(=O)[C@H](CCCNC(=N)N)NC(=O)[C@@H](NC(=O)[C@H](C)NC(=O)[C@H](CCC(=O)O)NC(=O)[C@H](CCC(=O)O)NC(=O)[C@H](CCC(=O)O)NC(=O)[C@H](CC(C)C)NC(=O)[C@H](CCC(N)=O)NC(=O)[C@H](CCCCN)NC(=O)[C@H](CO)NC(=O)[C@H](CC(C)C)NC(=O)[C@H](CC(=O)O)NC(=O)[C@H](CO)NC(=O)[C@@H](NC(=O)[C@H](Cc1ccccc1)NC(=O)[C@@H](NC(=O)[C@@H]1CSC2[C@H](CC(=O)O)[C@H](NC(=O)[C@H](C)NC(=O)[C@@H](N)Cc3c[nH]cn3)C(=O)N21)[C@@H](C)O)[C@@H](C)O)C(C)C)C(=O)N[C@@H](CCC(=O)O)C(=O)N[C@@H](Cc1c[nH]c2ccccc12)C(=O)N[C@@H](CC(C)C)C(=O)N[C@@H](CCCCN)C(=O)N[C@@H](CCC(N)=O)C(=O)NCC(=O)NCC(=O)N1CCC[C@H]1C(=O)N[C@@H](CO)C(=O)N[C@@H](CCCCN)C(=O)N[C@@H](CCC(=O)O)C(=O)N[C@H](C(=O)N[C@H](C(=O)N[C@@H](CO)C(=O)O)[C@@H](C)CC)[C@@H](C)CC` (stereo partly shown) [16A], the EC50 (GLP-1 receptor) was 0.52 nM and the “In Vivo Glucose-Lowering Assay” value (NIH/Swiss female mice; [2]) was “inactive”.
In the case of `CC[C@H](C)[C@H](NC(=O)[C@H](Cc1ccccc1)NC(=O)[C@H](CC(C)C)NC(=O)[C@H](CCCNC(=N)N)NC(=O)[C@@H](NC(=O)[C@H](C)NC(=O)[C@H](CCC(=O)O)NC(=O)[C@H](CCC(=O)O)NC(=O)[C@H](CCC(=O)O)NC(=O)[C@H](CC(C)C)NC(=O)[C@H](CCC(N)=O)NC(=O)[C@H](CCCCN)NC(=O)[C@H](CO)NC(=O)[C@H](CC(C)C)NC(=O)[C@H](CC(=O)O)NC(=O)[C@H](CO)NC(=O)[C@@H](NC(=O)[C@H](Cc1ccccc1)NC(=O)[C@@H](NC(=O)[C@@H]1CSC2C[C@@H](C(=O)O)[C@H](NC(=O)[C@H](C)NC(=O)[C@@H](N)Cc3c[nH]cn3)C(=O)N21)[C@@H](C)O)[C@@H](C)O)C(C)C)C(=O)N[C@@H](CCC(=O)O)C(=O)N[C@@H](Cc1c[nH]c2ccccc12)C(=O)N[C@@H](CC(C)C)C(=O)N[C@@H](CCCCN)C(=O)N[C@@H](CCC(N)=O)C(=O)NCC(=O)NCC(=O)N1CCC[C@H]1C(=O)N[C@@H](CO)C(=O)N[C@@H](CCCCN)C(=O)N[C@@H](CCC(=O)O)C(=O)N[C@H](C(=O)N[C@H](C(=O)N[C@@H](CO)C(=O)O)[C@@H](C)CC)[C@@H](C)CC` (stereo partly shown) [16C], the EC50 (GLP-1 receptor) is reported as 1.1 nM and the “In Vivo Glucose-Lowering Assay” value (NIH/Swiss female mice; [2]) is reported as “inactive”.
For `CC[C@H](C)[C@H](NC(=O)[C@H](Cc1ccccc1)NC(=O)[C@H](CC(C)C)NC(=O)[C@H](CCCNC(=N)N)NC(=O)[C@@H](NC(=O)[C@H](C)NC(=O)[C@H](CCC(=O)O)NC(=O)[C@H](CCC(=O)O)NC(=O)[C@H](CCC(=O)O)NC(=O)[C@H](CC(C)C)NC(=O)[C@H](CCC(N)=O)NC(=O)[C@H](CCCCN)NC(=O)[C@H](CO)NC(=O)[C@H](CC(C)C)NC(=O)[C@H](CC(=O)O)NC(=O)[C@H](CO)NC(=O)[C@@H](NC(=O)[C@H](Cc1ccccc1)NC(=O)[C@@H](NC(=O)CN1C[C@H](CC(=O)O)[C@H](NC(=O)[C@H](C)NC(=O)[C@@H](N)Cc2c[nH]cn2)C1=O)[C@@H](C)O)[C@@H](C)O)C(C)C)C(=O)N[C@@H](CCC(=O)O)C(=O)N[C@@H](Cc1c[nH]c2ccccc12)C(=O)N[C@@H](CC(C)C)C(=O)N[C@@H](CCCCN)C(=O)N[C@@H](CCC(N)=O)C(=O)NCC(=O)NCC(=O)N1CCC[C@H]1C(=O)N[C@@H](CO)C(=O)N[C@@H](CCCCN)C(=O)N[C@@H](CCC(=O)O)C(=O)N[C@H](C(=O)N[C@H](C(=O)N[C@@H](CO)C(=O)O)[C@@H](C)CC)[C@@H](C)CC` [16D], the EC50 (GLP-1 receptor) was 1 nM and the “In Vivo Glucose-Lowering Assay” value (NIH/Swiss female mice; [2]) was “inactive”.
For `CC[C@H](C)[C@H](NC(=O)[C@H](Cc1ccccc1)NC(=O)[C@H](CC(C)C)NC(=O)[C@H](CCCNC(=N)N)NC(=O)[C@@H](NC(=O)[C@H](C)NC(=O)[C@H](CCC(=O)O)NC(=O)[C@H](CCC(=O)O)NC(=O)[C@H](CCC(=O)O)NC(=O)[C@H](CC(C)C)NC(=O)[C@H](CCC(N)=O)NC(=O)[C@H](CCCCN)NC(=O)[C@H](CO)NC(=O)[C@H](CC(C)C)NC(=O)[C@H](CC(=O)O)NC(=O)[C@H](CO)NC(=O)[C@@H](NC(=O)[C@H](Cc1ccccc1)NC(=O)[C@@H](NC(=O)[C@H](C)N1CC[C@@H](C(=O)O)[C@H](NC(=O)[C@H](C)NC(=O)[C@@H](N)Cc2c[nH]cn2)C1=O)[C@@H](C)O)[C@@H](C)O)C(C)C)C(=O)N[C@@H](CCC(=O)O)C(=O)N[C@@H](Cc1c[nH]c2ccccc12)C(=O)N[C@@H](CC(C)C)C(=O)N[C@@H](CCCCN)C(=O)N[C@@H](CCC(N)=O)C(=O)NCC(=O)NCC(=O)N1CCC[C@H]1C(=O)N[C@@H](CO)C(=O)N[C@@H](CCCCN)C(=O)N[C@@H](CCC(=O)O)C(=O)N[C@H](C(=O)N[C@H](C(=O)N[C@@H](CO)C(=O)O)[C@@H](C)CC)[C@@H](C)CC` [16F], the EC50 (GLP-1 receptor) was 0.61 nM and the “In Vivo Glucose-Lowering Assay” value (NIH/Swiss female mice; Table 1, time printed in minutes) was “about 30 minutes”.
